Source: PubChem BioAssay AID2060615 (Molecular Pharmacology Branch, DTP, NCI, 2025)

Tested on: 496974-208-R-J2-PDC complex spheroids, growth % test/control
Test: Anticancer human tumor 496974-208-R-J2-PDC patient-derived pancreatic carcinoma cell line growth inhibition [CLK]
Conditions: for IC50: curve of first compound; for viability, T/C: stronger effect = lower value
Outline: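 Patient-derived tumor cells grown as complex spheroids with HUVEC endothelial cells and mesenchymal stem cells, treated with drug combinations. Concentrations descend in half-log steps from near clinical Cmax, or from 10 microM if Cmax unknown.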

[1] = second compound 0.0316 µM, first compound 0.00949 µM
[2] = second compound 0.0316 µM, first compound 0.03 µM
[3] = second compound 0.0316 µM, first compound 0.0949 µM
[4] = second compound 0.0316 µM, first compound 0.3 µM
[5] = second compound 0.1 µM, first compound 0.00949 µM
[6] = second compound 0.1 µM, first compound 0.03 µM
[7] = second compound 0.1 µM, first compound 0.0949 µM
[8] = second compound 0.1 µM, first compound 0.3 µM
[9] = second compound 0.316 µM, first compound 0.00949 µM
[10] = second compound 0.316 µM, first compound 0.03 µM
[11] = second compound 0.316 µM, first compound 0.0949 µM
[12] = second compound 0.316 µM, first compound 0.3 µM
[13] = second compound 1 µM, first compound 0.00949 µM
[14] = second compound 1 µM, first compound 0.03 µM
[15] = second compound 1 µM, first compound 0.0949 µM
[16] = second compound 1 µM, first compound 0.3 µM
[17] = second compound 3.16 µM, first compound 0.00949 µM
[18] = second compound 3.16 µM, first compound 0.03 µM
[19] = second compound 3.16 µM, first compound 0.0949 µM
[20] = second compound 3.16 µM, first compound 0.3 µM
[21] = second compound 10 µM, first compound 0.00949 µM
[22] = second compound 10 µM, first compound 0.03 µM
[23] = second compound 10 µM, first compound 0.0949 µM
[24] = second compound 10 µM, first compound 0.3 µM
[25] = second compound 0.0316 µM, first compound 0.0316 µM
[26] = second compound 0.0316 µM, first compound 0.1 µM
[27] = second compound 0.0316 µM, first compound 0.316 µM
[28] = second compound 0.0316 µM, first compound 1 µM
[29] = second compound 0.0316 µM, first compound 3.16 µM
[30] = second compound 0.0316 µM, first compound 10 µM
[31] = second compound 0.1 µM, first compound 0.0316 µM
[32] = second compound 0.1 µM, first compound 0.1 µM
[33] = second compound 0.1 µM, first compound 0.316 µM
[34] = second compound 0.1 µM, first compound 1 µM
[35] = second compound 0.1 µM, first compound 3.16 µM
[36] = second compound 0.1 µM, first compound 10 µM
[37] = second compound 0.316 µM, first compound 0.0316 µM
[38] = second compound 0.316 µM, first compound 0.1 µM
[39] = second compound 0.316 µM, first compound 0.316 µM
[40] = second compound 0.316 µM, first compound 1 µM
[41] = second compound 0.316 µM, first compound 3.16 µM
[42] = second compound 0.316 µM, first compound 10 µM
[43] = second compound 1 µM, first compound 0.0316 µM
[44] = second compound 1 µM, first compound 0.1 µM
[45] = second compound 1 µM, first compound 0.316 µM
[46] = second compound 1 µM, first compound 1 µM
[47] = second compound 1 µM, first compound 3.16 µM
[48] = second compound 1 µM, first compound 10 µM
[49] = second compound 3.16 µM, first compound 0.0316 µM
[50] = second compound 3.16 µM, first compound 0.1 µM
[51] = second compound 3.16 µM, first compound 0.316 µM
[52] = second compound 3.16 µM, first compound 1 µM
[53] = second compound 3.16 µM, first compound 3.16 µM
[54] = second compound 3.16 µM, first compound 10 µM
[55] = second compound 10 µM, first compound 0.0316 µM
[56] = second compound 10 µM, first compound 0.1 µM
[57] = second compound 10 µM, first compound 0.316 µM
[58] = second compound 10 µM, first compound 1 µM
[59] = second compound 10 µM, first compound 3.16 µM
[60] = second compound 10 µM, first compound 10 µM
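Further: spheroids exposed to the drugs for 7 days before readout.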
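Wherever viability, T/C is given: 100% = DMSO vehicle control wells.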

C=CC(=O)Nc1cc(Nc2nccc(-c3cn(C)c4ccccc34)n2)c(OC)cc1N(C)CCN(C)C + CNC(=O)c1ccc(Nc2nc(OC3CCCC3)c3c(-c4ccc5nc(C)oc5c4)c[nH]c3n2)c(OC)c1
IC50 (second compound 0.0316 µM): > 0.3 µM | IC50 (second compound 0.1 µM): > 0.3 µM | IC50 (second compound 0.316 µM): > 0.3 µM | IC50 (second compound 1 µM): 0.152 µM | IC50 (second compound 3.16 µM): 0.122 µM | IC50 (second compound 10 µM): 0.0758 µM | viability, T/C (second compound 0.0316 µM, first compound 0.000949 µM): 108% | viability, T/C (second compound 0.0316 µM, first compound 0.003 µM): 99.3% | viability, T/C [1]: 88% | viability, T/C [2]: 96.5% | viability, T/C [3]: 90.2% | viability, T/C [4]: 71.7% | viability, T/C (second compound 0.1 µM, first compound 0.000949 µM): 80.6% | viability, T/C (second compound 0.1 µM, first compound 0.003 µM): 89.5% | viability, T/C [5]: 67.1% | viability, T/C [6]: 72.8% | viability, T/C [7]: 70% | viability, T/C [8]: 53.1% | viability, T/C (second compound 0.316 µM, first compound 0.000949 µM): 81.1% | viability, T/C (second compound 0.316 µM, first compound 0.003 µM): 77.4% | viability, T/C [9]: 85.2% | viability, T/C [10]: 74.5% | viability, T/C [11]: 60.4% | viability, T/C [12]: 51.2% | viability, T/C (second compound 1 µM, first compound 0.000949 µM): 76.7% | viability, T/C (second compound 1 µM, first compound 0.003 µM): 70.2% | viability, T/C [13]: 66% | viability, T/C [14]: 65.1% | viability, T/C [15]: 57.2% | viability, T/C [16]: 40.9% | viability, T/C (second compound 3.16 µM, first compound 0.000949 µM): 63.4% | viability, T/C (second compound 3.16 µM, first compound 0.003 µM): 64.1% | viability, T/C [17]: 65.6% | viability, T/C [18]: 57.8% | viability, T/C [19]: 51.7% | viability, T/C [20]: 41.1% | viability, T/C (second compound 10 µM, first compound 0.000949 µM): 60.3% | viability, T/C (second compound 10 µM, first compound 0.003 µM): 57.9% | viability, T/C [21]: 57.5% | viability, T/C [22]: 51.3% | viability, T/C [23]: 51.4% | viability, T/C [24]: 30.4%

CC1(C)CCC(CN2CCN(c3ccc(C(=O)NS(=O)(=O)c4ccc(NCC5CCOCC5)c([N+](=O)[O-])c4)c(Oc4cnc5[nH]ccc5c4)c3)CC2)=C(c2ccc(Cl)cc2)C1 + CNC(=O)c1ccc(Nc2nc(OC3CCCC3)c3c(-c4ccc5nc(C)oc5c4)c[nH]c3n2)c(OC)c1
IC50 (second compound 0.0316 µM): 8.41 µM | IC50 (second compound 0.1 µM): 7.09 µM | IC50 (second compound 0.316 µM): 9.3 µM | IC50 (second compound 1 µM): 5.67 µM | IC50 (second compound 3.16 µM): 4.11 µM | IC50 (second compound 10 µM): 3.9 µM | viability, T/C [25]: 87.7% | viability, T/C [26]: 93.6% | viability, T/C [27]: 86.4% | viability, T/C [28]: 92.4% | viability, T/C [29]: 84.4% | viability, T/C [30]: 43.8% | viability, T/C [31]: 75.1% | viability, T/C [32]: 73.3% | viability, T/C [33]: 76.8% | viability, T/C [34]: 82.8% | viability, T/C [35]: 72.8% | viability, T/C [36]: 39.9% | viability, T/C [37]: 75.8% | viability, T/C [38]: 76.2% | viability, T/C [39]: 73.6% | viability, T/C [40]: 85.3% | viability, T/C [41]: 71% | viability, T/C [42]: 48.5% | viability, T/C [43]: 71% | viability, T/C [44]: 71.7% | viability, T/C [45]: 73.5% | viability, T/C [46]: 67.3% | viability, T/C [47]: 61.1% | viability, T/C [48]: 39.5% | viability, T/C [49]: 59.5% | viability, T/C [50]: 56.2% | viability, T/C [51]: 61.5% | viability, T/C [52]: 62.5% | viability, T/C [53]: 52.6% | viability, T/C [54]: 35.5% | viability, T/C [55]: 55.8% | viability, T/C [56]: 55.2% | viability, T/C [57]: 54.3% | viability, T/C [58]: 50.1% | viability, T/C [59]: 54.4% | viability, T/C [60]: 32.9%

NC(=O)C(=Cn1cnc(-c2cc(C(F)(F)F)cc(C(F)(F)F)c2)n1)c1cncnc1 + CNC(=O)c1ccc(Nc2nc(OC3CCCC3)c3c(-c4ccc5nc(C)oc5c4)c[nH]c3n2)c(OC)c1
IC50 (second compound 0.0316 µM): 0.158 µM | IC50 (second compound 0.1 µM): 0.0816 µM | IC50 (second compound 0.316 µM): < 0.00949 µM | IC50 (second compound 1 µM): < 0.00949 µM | IC50 (second compound 3.16 µM): < 0.00949 µM | IC50 (second compound 10 µM): < 0.00949 µM | viability, T/C [1]: 83.3% | viability, T/C [2]: 77.3% | viability, T/C [3]: 65.1% | viability, T/C [4]: 31.4% | viability, T/C (second compound 0.0316 µM, first compound 0.949 µM): 20.5% | viability, T/C (second compound 0.0316 µM, first compound 3 µM): 14.1% | viability, T/C [5]: 68.5% | viability, T/C [6]: 56.3% | viability, T/C [7]: 52% | viability, T/C [8]: 27.9% | viability, T/C (second compound 0.1 µM, first compound 0.949 µM): 20.9% | viability, T/C (second compound 0.1 µM, first compound 3 µM): 16.8% | viability, T/C [9]: 47.2% | viability, T/C [10]: 48.6% | viability, T/C [11]: 43.9% | viability, T/C [12]: 21.4% | viability, T/C (second compound 0.316 µM, first compound 0.949 µM): 18.8% | viability, T/C (second compound 0.316 µM, first compound 3 µM): 12.4% | viability, T/C [13]: 46.6% | viability, T/C [14]: 40.6% | viability, T/C [15]: 29.8% | viability, T/C [16]: 16.1% | viability, T/C (second compound 1 µM, first compound 0.949 µM): 14.3% | viability, T/C (second compound 1 µM, first compound 3 µM): 9.67% | viability, T/C [17]: 44.9% | viability, T/C [18]: 28.7% | viability, T/C [19]: 20.2% | viability, T/C [20]: 12.1% | viability, T/C (second compound 3.16 µM, first compound 0.949 µM): 10.8% | viability, T/C (second compound 3.16 µM, first compound 3 µM): 5.23% | viability, T/C [21]: 39.4% | viability, T/C [22]: 28.8% | viability, T/C [23]: 19.1% | viability, T/C [24]: 9.35% | viability, T/C (second compound 10 µM, first compound 0.949 µM): 8.25% | viability, T/C (second compound 10 µM, first compound 3 µM): 3.76%

Nc1ccccc1NC(=O)c1ccc(CNC(=O)OCc2cccnc2)cc1 + CNC(=O)c1ccc(Nc2nc(OC3CCCC3)c3c(-c4ccc5nc(C)oc5c4)c[nH]c3n2)c(OC)c1
IC50 (second compound 0.0316 µM): 4.52 µM | IC50 (second compound 0.1 µM): 4.53 µM | IC50 (second compound 0.316 µM): 4.36 µM | IC50 (second compound 1 µM): 4.23 µM | IC50 (second compound 3.16 µM): 3.34 µM | IC50 (second compound 10 µM): 3.34 µM | viability, T/C [25]: 92.7% | viability, T/C [26]: 92.8% | viability, T/C [27]: 89.9% | viability, T/C [28]: 78% | viability, T/C [29]: 75.3% | viability, T/C [30]: 0.72% | viability, T/C [31]: 81.8% | viability, T/C [32]: 72.5% | viability, T/C [33]: 66.3% | viability, T/C [34]: 61.4% | viability, T/C [35]: 73.6% | viability, T/C [36]: 3.35% | viability, T/C [37]: 78.6% | viability, T/C [38]: 72.9% | viability, T/C [39]: 74.2% | viability, T/C [40]: 56.1% | viability, T/C [41]: 69.2% | viability, T/C [42]: 1.48% | viability, T/C [43]: 69.1% | viability, T/C [44]: 65.1% | viability, T/C [45]: 67.8% | viability, T/C [46]: 58.5% | viability, T/C [47]: 68.6% | viability, T/C [48]: 3% | viability, T/C [49]: 63.5% | viability, T/C [50]: 59.2% | viability, T/C [51]: 55% | viability, T/C [52]: 49.7% | viability, T/C [53]: 53.5% | viability, T/C [54]: 4.03% | viability, T/C [55]: 60.2% | viability, T/C [56]: 53.4% | viability, T/C [57]: 52.1% | viability, T/C [58]: 42.9% | viability, T/C [59]: 53.2% | viability, T/C [60]: 4.38%
